Experimental data from patent US20230337677A1, “ARYL AND PYRIDYL AMIDE PESTICIDES AND COMPOSITIONS THEREOF” (University of Florida Research Foundation, Incorporated, priority 2019, published 2023).

How the values were obtained:
[1] = tested on: Aedes aegypti mosquitoes, insecticide-susceptible Orlando strain; type: in vivo; conditions: for 1 h % Repellency, 100 μg/cm^2: screened at 100 μg/cm^2, strain not given; for 1 h Repellency EC50, μg/cm^2: (OR); for vapor repellency / mortality, statement in words (Example 8): structure-activity analysis of Table 2
How it was run: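 Sixteen female mosquitoes per glass tube facing netting-shielded filter paper treated with acetone solutions (30-0.01 μg/ml; screen at 100 μg/cm^2), no contact. Proportion on treated side scored up to 60 min, then flight-out checked 30 min; mortality after 24 hr constant exposure.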

[2] = tested on: Aedes aegypti strain Orlando (sensitive); test: Topical toxicity (24 hour mortality), Ae. aegypti Orlando; type: in vivo; conditions: topical application, 24 h mortality, female adults, susceptible Orlando strain
How it was run: (§1)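 Females aged 3–6 days received 200 nL of compound in ethanol topically on the thorax, 10 per concentration per replicate, and were kept at 28° C with sugar water.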

[3] = tested on: Aedes aegypti mosquitoes, insecticide-susceptible Orlando strain; test: whole plant or invertebrate; conditions: 24 h; for mortality at 100 µg/cm2: read-out: 24 h % Mortality, 100 μg/cm^2
[4] = tested on: Anopheles gambiae G3 sensitive strain; test: Topical toxicity (24 hour mortality), An. gambiae G3; type: in vivo; conditions: topical application, 24 h mortality, female adults, susceptible strain G3
How it was run: as §1

[5] = tested on: Anopheles gambiae Akron kdr (Akdr) strain, resistant to pyrethroids; test: Topical toxicity (24 hour mortality), An. gambiae Akdr; type: in vivo; conditions: for An. gambiae RR (resistance ratio): 24 h LD50 resistant strain (AKDR)/24 h LD50 susceptible strain (G3); for An. gambiae AKDR LD50: topical application, 24 h mortality, female adults, pyrethroid-resistant Akdr strain
Protocol: (§2) The Aedes aegypti strains Orlando (sensitive) as well as the Puerto Rico (PR, resistant to permethrin) were used. The Anopheles gambiae (G3 sensitive strain, as well as Akron kdr (Akdr) strain, resistant to pyrethroids were also assessed. The larvae were provided by the USDA, Gainesville Fl, and raised in a pan with tap water maintained at 28° C. Larvae were fed a ground liver and yeast mixture, and pupae were placed in emergence cages. Adults were held at 28° C. and provided with cotton balls soaked in 10% sugar water for rearing and for all bioassays.
(§3) Female adults from 3 to 6 days were used for the experiments. The drug was dissolved in ethanol and then applied with a micro-applicator on the thorax, between the legs: 200 nL of drug per female mosquito, with different concentrations of the drug; 10 mosquitos were treated together per concentration per replicate, and put together in a small container with free access to sweet water. Mortality, i.e. no visible movement, was assessed 24 hours after treatment. Every compound was assessed on at least 3 different cohorts of mosquitoes, and the LD50 values and slopes were determined with Probit analysis, corrected with Abbott's formula.

[6] = tested on: Aedes aegypti mosquitoes, insecticide-susceptible Orlando strain; conditions: 24 h; LC50 (OR)
[7] = tested on: Aedes aegypti strain Puerto Rico (PR, resistant to permethrin); test: Topical toxicity (24 hour mortality), Ae. aegypti Puerto Rico; type: in vivo; conditions: for Ae. aegypti RR (resistance ratio): 24 h LD50 resistant strain (PR)/24 h LD50 susceptible strain (OR); for Ae. aegypti PR LD50: topical application, 24 h mortality, female adults, permethrin-resistant Puerto Rico strain
Protocol: as §2, §3

SMILES | 1 h % Repellency, 100 μg/cm^2 ([1]; 1 h) | Ae. aegypti OR LD50 [2] | mortality at 100 µg/cm2 [3] | 1 h Repellency EC50, μg/cm^2 ([1]; 1 h) | An. gambiae G3 LD50 [4] | An. gambiae RR (resistance ratio) [5] | An. gambiae AKDR LD50 [5] | 24 h LC50, μg/cm^2 [6] | vapor repellency / mortality, statement in words (Example 8) [1] | knockdown in 1 hr repellency test (XXkd = number of insects incapacitated out of 16 females) ([1]; 100 μg/cm^2, 1 h, out of 16 females) | Ae. aegypti RR (resistance ratio) [7] | Ae. aegypti PR LD50 [7] | knockdown in 1 hr repellency test (XXkd) ([1]; screened at 10 μg/cm^2, 1 h, out of 16 females) | mortality at 10 µg/cm2 ([3]; read-out: 24 h % Mortality)
CC(C)(C)OC(=O)N(C(=O)C(F)(F)F)c1c(Cl)cc(C(F)(F)F)cc1Cl [GMR151] | 32% | >5000 ng/mg | 0% |  |  |  |  |  |  |  |  |  |  | 
O=C(Nc1c(Cl)cc(C(F)(F)F)cc1Cl)C(F)(F)C(F)(F)F [GMR138, N-(2,6-dichloro-4-(trifluoromethyl)phenyl)-2,2,3,3,3-pentafluoropropanamide] | 66% | 57.6 ng/mg | 100% | 5.3 μg/cm^2 | 120.00 ng/mg | 0.8 | 90.00 ng/mg | 0.3 μg/cm^2 |  |  |  |  |  | 
N#CC(F)(F)C(=O)Nc1cc(F)c(F)c(F)c1 [GMR102] | 74% | 2164 ng/mg | 22% | 28 μg/cm^2 | >100 ng/mg |  | >100 ng/mg |  | moderate repellency and toxicity |  |  |  |  | 
CC(C)(C)OC(=O)N(C(=O)C(F)(F)C(F)(F)F)c1c(Cl)cc(C(F)(F)F)cc1Cl [GMR150] |  | 629 ng/mg | 100% |  |  |  |  | 12 μg/cm^2 |  | 11 |  |  |  | 
O=C(Nc1cc(Cl)nc(Cl)c1)C(F)F [GMR028] | 12% | 266 ng/mg | 59% |  | 43.1 ng/mg | 0.7 | 28.2 ng/mg |  |  |  | 3.2 | 854 ng/mg |  | 
CC(C(=O)Nc1cc(F)c(F)c(F)c1)(C(F)(F)F)C(F)(F)F [GMR139] | 24% |  | 100% | 6.9 μg/cm^2 |  |  |  | 16.6 μg/cm^2 | reduced repellency |  |  |  |  | 
CC(=O)N(C(C)=O)c1cccc(OC(F)(F)F)c1 [GMR159] | −26% |  | 19% |  | >1000 ng/mg |  | ~1000 ng/mg |  |  |  |  |  |  | 
O=C(Nc1ccnc(Br)c1)C(F)(F)C(F)(F)C(F)(F)C(F)(F)C(F)(F)F [GMR069] | −12% | 2261 ng/mg | 13% |  |  |  | 3425 ng/mg |  |  |  |  |  |  | 
O=C(OCc1c(F)c(F)cc(F)c1F)C(F)(F)C(F)(F)C(F)(F)F [GMR090] | −12% | >1000 ng/mg | 9% |  | >100 ng/mg |  | >100 ng/mg |  |  |  |  |  |  | 
CN(C(=O)C(F)(F)C(F)(F)C(F)(F)F)c1cc(Cl)nc(Cl)c1 [GMR095] | 84% | 1576 ng/mg | 100% | 10 μg/cm^2 | 1300.00 ng/mg | 0.6 | 775.00 ng/mg | 14 μg/cm^2 |  |  |  |  |  | 
O/N=C(\Nc1cc(Cl)nc(Cl)c1)C(F)(F)C(F)(F)C(F)(F)F [GMR104] | 12% | 393 ng/mg | 0% |  | >100 ng/mg |  |  |  |  |  |  |  |  | 
O=C(Nc1cc(Br)nc(Br)c1)C(F)(F)C(F)(F)C(F)(F)C(F)(F)C(F)(F)F [GMR056] |  | 15 ng/mg |  |  | 8.6 ng/mg | 0.4 | 3.2 ng/mg |  |  |  | 0.8 | 12.10 ng/mg |  | 
O=C(Nc1cc(F)c(F)c(F)c1)C(F)(F)C(F)(F)OC(F)(F)F [GMR100] |  | 2374 ng/mg |  | 3 μg/cm^2 | >1000 ng/mg |  | >1000 ng/mg | 15 μg/cm^2 |  |  |  |  | 10 | 21%
O=C(Nc1cc(C(F)(F)F)ccn1)C(F)(F)C(F)(F)C(F)(F)F [GMR085] | 70% | >6000 ng/mg | 13% | 49 μg/cm^2 | >100 ng/mg |  | >50 ng/mg |  |  |  |  |  |  | 
CNC(=O)Oc1ccccc1OC(C)C [Propoxur] |  | 3.0 ng/mg |  |  | 3.2 ng/mg | 63 | 201 ng/mg |  |  |  | 0.0 |  |  | 
O=C(Nc1c(F)c(F)nc(F)c1F)C(F)(F)C(F)(F)C(F)(F)C(F)(F)C(F)(F)F [GMR057] |  | 20 ng/mg |  |  | 28.4 ng/mg | 0.6 | 15.7 ng/mg |  |  |  | 0.4 | 8.90 ng/mg |  | 
O=C(CCl)Nc1ccccc1C(F)(F)F [MTFI-2-1A] | 94% |  | 100% | 14 μg/cm^2 |  |  |  | 14 μg/cm^2 |  |  |  |  |  | 
O=C(Nc1cc(Cl)nc(C(F)(F)F)c1)C(F)(F)C(F)(F)C(F)(F)C(F)(F)C(F)(F)F [GMR055] |  | 10.5 ng/mg |  |  | 11.0 ng/mg | 0.4 | 4.0 ng/mg |  |  |  | 0.6 | 5.90 ng/mg |  | 
O=C(Nc1c(Cl)cc(C(F)(F)F)cc1Cl)C(F)(F)F [GMR149] | 44% | 251 ng/mg | 81% |  |  |  |  |  |  |  |  |  |  | 
O=C(Nc1cc(Cl)cc(Cl)c1)C(F)(F)C(F)(F)OC(F)(F)F [GMR099] | 74% | 3279 ng/mg | 81% |  | >1000 ng/mg |  | >1000 ng/mg |  |  |  |  |  |  | 
O=C(NCc1cc(Cl)nc(Cl)c1)C(F)(F)C(F)(F)C(F)(F)F [GMR107] | 50% | 2173 ng/mg | 0% |  |  |  |  |  |  |  |  |  |  | 
CCC(=O)N(C(=O)CC)c1cccc(OC(F)(F)F)c1 [GMR161] | 74% |  | 72% | 36 μg/cm^2 |  |  |  | 52 μg/cm^2 |  |  |  |  |  | 
